# Patent US4676822A, “Fluid fertilizers containing thiophosphoryl triamide” (Tennessee Valley Authority, priority 1986, dated 1987)
# “And” between values parts separate entries of the source, which are not always exact repeats. Identical values can stand only once. Like-named read-outs stand apart in the source and are kept apart here.
# Legend:
# [1] = system: urease; settings: prior art; cited from earlier work
# [2] = solid mixtures with urea, 25° C.; cited from earlier work
# [3] = 25° C., cited from earlier work; for first-order reaction half-life: UAN (31-0-0)
# [4] = system: urease; assay: Urease inhibition tests with TPTA and PPDA in fluid fertilizers, banded soil system (urease-active Hastings silt loam); type: biochemical; settings: for average % urea unhydrolyzed, 3 days / % urea unhydrolyzed, 3 days: 3 days incubation at 25° C.; for average % urea unhydrolyzed, 3 days / average % urea unhydrolyzed, 6 days: average of A and B samples; for % urea unhydrolyzed, 3 days / % urea unhydrolyzed, 6 days: single sample; for average % urea unhydrolyzed, 6 days / % urea unhydrolyzed, 6 days: 6 days incubation at 25° C.
# Experimental: Samples of UAN (31-0-0), 1 g, and (36-0-0), 0.66 g containing approximately 0.38 g urea and 0.041 g of TPTA were prepared by dissolving solid TPTA in 31-0-0 and 36-0-0 of the compositions shown in Table I, supra. Identical samples containing PPDA and without either inhibitor were prepared to serve as references for purposes of data comparison.
# Urease-active soil (Hastings silt loam) was moistened to a moisture content of 20 percent and preincubated at room temperature for two days. Plexiglass containers (6×6×6 cm) were one-half filled with soil and packed to a bulk density of 1.0 g/cm^3. The 31-0-0 and 36-0-0 samples containing TPTA and PPDA as well as samples containing no inhibitor were distributed evenly in a narrow band 6 cm along the soil surface. The containers were filled with soil and again packed to a bulk density of 1.0 g/cm^3. The containers were incubated at 25° C. for the desired reaction period. After incubation the soil from each container was thoroughly mixed, and a 10-g sample was extracted with 100 mL of 2M KCl containing 5 ppm phenylmercuric acetate to prevent urea hydrolysis during handling [L. A. Douglass and J. M. Bremner, Soil Sci. Soc. Am. Proc. 34, 859-862 (1970)]. The urea in the extracts was determined colorimetrically as a measure of unhydrolyzed urea. The results of three-day and six-day incubation tests are illustrated in Table II infra; and as noted supra, plotted in FIG. 1.
# [5] = compared with PPDA; cited from earlier work
# [6] = 25° C., water partial pressure 12.73 mm of Hg; cited from earlier work
smiles,measurement,setting,value
"NP(N)(=O)O [DAPA, diamidophosphoric acid]",urease inhibition (in words),[1],are urease inhibitors
"NP(=O)(O)O [MAPA, monoamido phosphoric acid]",urease inhibition (in words),[1],are urease inhibitors
"NP(N)(=O)Oc1ccccc1 [PPDA, phenyl phosphorodiamidate, reference compound]",half-life of PPDA in mixtures with urea,[2],0.9 years
same,first-order reaction half-life,[3]; pH 6.46,146 h
same,first-order reaction half-life,[3]; pH 8.14,28.8 h
same,decomposition rate constant,[3]; UAN (36-0-0) saturated with PPDA,10.2 percent decomposition per day
same,decomposition rate constant,[3]; UAS (29-0-0-5S) saturated with PPDA,20.5 percent decomposition per day
same,"average % urea unhydrolyzed, 3 days",[4]; UAN (31-0-0),83.36%
same,"% urea unhydrolyzed, 3 days",[4]; UAN (31-0-0),83.64% and 83.09%
same,"average % urea unhydrolyzed, 6 days",[4]; UAN (31-0-0),12.61%
same,"% urea unhydrolyzed, 6 days",[4]; UAN (31-0-0),14.03% and 11.20%
same,"average % urea unhydrolyzed, 3 days",[4]; UAN (36-0-0),85.73% and 84%
same,"% urea unhydrolyzed, 3 days",[4]; UAN (36-0-0),86.22% and 81.24%
same,"average % urea unhydrolyzed, 6 days",[4]; UAN (36-0-0),11.32% and 11%
same,"% urea unhydrolyzed, 6 days",[4]; UAN (36-0-0),12.10% and 10.53%
same,urease inhibition (in words),[1],extremely potent inhibitor of urease activity
"NP(N)(N)=O [PTA, phosphoryl triamide]",stability in urea melt,[5],much less stable in urea melt than PPDA
same,reaction half-life in solid mixtures with urea,[6],4.3 h
